We go through nine molecules from ChEMBL document CHEMBL1139619, “Exploiting a basic chemosensitizing pharmacophore hypothesis. Part 1: synthesis and biological evaluation of novel arylbromide and bicyclic chemosensitizers against drug-resistant malaria parasites” (Bioorg Med Chem Lett, 2005).

Assay [1] concerns Plasmodium falciparum. As to the kind of experiment: (§1) In vitro inhibitory concentration against chloroquine-enhancing Plasmodium falciparum FCM29 at 0.5 ug/mL. The format is functional, organism-based.
For assay [2], the system named is Plasmodium falciparum. As to the kind of experiment: (§2) In vitro inhibitory concentration against chloroquine-enhancing Plasmodium falciparum FCM29 at 2 ug/mL. The format is functional, organism-based.
Assay [3] deals with Plasmodium falciparum. As to the kind of experiment: (§3) In vitro inhibitory concentration against Plasmodium falciparum FCM29. Type of assay: functional, organism-based.
The subject of assay [4] is Plasmodium falciparum. Described as §2. Type of assay: functional.
For assay [5], the system named is Plasmodium falciparum. The assay is described as follows: (§4) In vitro inhibitory concentration against Plasmodium falciparum FCM29 at 1 ug/mL. The format is functional, organism-based.
Assay [6] concerns Plasmodium falciparum. As to the kind of experiment: In vitro inhibition against Plasmodium falciparum FCM29 at 2 ug/mL. The format is functional, organism-based.
Assay [7] deals with Plasmodium falciparum. The assay is described as follows: In vitro inhibition against Plasmodium falciparum FCM29 at 4 ug/mL. The format is functional, organism-based.
Assay [8] concerns Plasmodium falciparum. The assay is described as §3. Type of assay: functional.
The subject of assay [9] is Plasmodium falciparum. The assay is described as §4. Type of assay: functional.
In assay [10] the test system is Plasmodium falciparum. The assay is described as follows: In vitro inhibitory concentration against Plasmodium falciparum FCM29 at 2 ug/mL. Type of assay: functional.
Assay [11] relates to Plasmodium falciparum. As to the kind of experiment: In vitro inhibitory concentration against Plasmodium falciparum FCM29 at 4 ug/mL. Type of assay: functional.
Assay [12] concerns Plasmodium falciparum. The assay is described as §1. The format is functional.
In assay [13] the test system is Plasmodium falciparum. As to the kind of experiment: In vitro inhibitory concentration against chloroquine-enhancing Plasmodium falciparum FCM29 at.62 ug/mL. Type of assay: functional, organism-based.
For assay [14], the system named is Plasmodium falciparum. As to the kind of experiment: In vitro inhibitory concentration against Plasmodium falciparum FCM29 at 0.62 ug/mL. The format is functional.
Assay [15] relates to Plasmodium falciparum. The assay is described as follows: (§5) In vitro inhibitory concentration against chloroquine-enhancing Plasmodium falciparum FCM29 at 1.25 ug/mL. The format is functional.
Assay [16] relates to Plasmodium falciparum. As to the kind of experiment: In vitro inhibitory concentration against chloroquine-enhancing Plasmodium falciparum FCM29 at2.50 ug/mL. Type of assay: functional.
Assay [17] relates to Plasmodium falciparum. The description is as §5. The format is functional, organism-based.
Assay [18] has as its system Plasmodium falciparum. As to the kind of experiment: In vitro inhibitory concentration against chloroquine-enhancing Plasmodium falciparum FCM29 at 2.50 ug/mL. Type of assay: functional, organism-based.
In assay [19] the test system is Plasmodium falciparum. As to the kind of experiment: (§6) In vitro inhibitory concentration against chloroquine-enhancing Plasmodium falciparum FCM29 at 1.5 ug/mL. Type of assay: functional, organism-based.
For assay [20], the system named is Plasmodium falciparum. As to the kind of experiment: In vitro inhibitory concentration against Plasmodium falciparum FCM29 at 1.5 ug/mL. The format is functional.
For assay [21], the system named is Plasmodium falciparum. The assay is described as follows: In vitro inhibitory concentration against chloroquine-enhancing Plasmodium falciparum FCM29 at 0.75 ug/mL. Type of assay: functional.
Assay [22] concerns Plasmodium falciparum. The assay is described as follows: In vitro inhibitory concentration chloroquine-enhancing against Plasmodium falciparum FCM29 at 0.375 ug/mL. Type of assay: functional.
The subject of assay [23] is Plasmodium falciparum. The assay is described as follows: In vitro inhibitory concentration chloroquine-enhancing against chloroquine-enhancing Plasmodium falciparum FCM29 at 0.75 ug/mL. The format is functional, organism-based.
Assay [24] deals with Plasmodium falciparum. The assay is described as follows: In vitro inhibition against Plasmodium falciparum FCM29 at 3 ug/mL. Type of assay: functional, organism-based.
The test system of assay [25] is Plasmodium falciparum. The assay is described as follows: In vitro inhibitory concentration against Plasmodium falciparum FCM29 at 3 ug/mL. Type of assay: functional.
The subject of assay [26] is Plasmodium falciparum. The assay is described as §6. The format is functional.
The test system of assay [27] is Plasmodium falciparum. The assay is described as follows: (§7) In vitro inhibitory concentration against chloroquine-enhancing Plasmodium falciparum FCM29 at 0.6 ug/mL. The format is functional, organism-based.
For assay [28], the system named is Plasmodium falciparum. As to the kind of experiment: In vitro inhibition against Plasmodium falciparum FCM29 at 0.3 ug/mL. Type of assay: functional, organism-based.
Assay [29] deals with Plasmodium falciparum. The assay is described as follows: In vitro inhibitory concentration against Plasmodium falciparum FCM29 at 0.3 ug/mL. Type of assay: functional.
The subject of assay [30] is Plasmodium falciparum. The assay is described as §7. Type of assay: functional.
For assay [31], the system named is Plasmodium falciparum. The assay is described as follows: (§8) In vitro inhibitory concentration against chloroquine-enhancing Plasmodium falciparum FCM29 at 2.5 ug/mL. The format is functional, organism-based.
The subject of assay [32] is Plasmodium falciparum. As to the kind of experiment: In vitro inhibition against Plasmodium falciparum FCM29 at 0.62 ug/mL. Type of assay: functional, organism-based.
Assay [33] concerns Plasmodium falciparum. As to the kind of experiment: (§9) In vitro inhibitory concentration against chloroquine-enhancing Plasmodium falciparum FCM29 at 5 ug/mL. The format is functional, organism-based.
Assay [34] relates to Plasmodium falciparum. The assay is described as §8. The format is functional.
Assay [35] deals with Plasmodium falciparum. The description is as §9. The format is functional.
Assay [36] is described as follows: In vitro inhibitory concentration against chloroquine-enhancing Plasmodium falciparum FCM29 @ concentration of 1 ug/mL. The format is functional.
Assay [37] in a line: (§10) In vitro inhibitory concentration against Plasmodium falciparum FCM29 @ concentration of 00 ug/mL. The format is functional.
Assay [38] relates to Plasmodium falciparum. The assay is described as §10. Type of assay: functional.
The subject of assay [39] is Plasmodium falciparum. As to the kind of experiment: In vitro inhibitory concentration against Plasmodium falciparum FCM29 @ concentration of 0.5 ug/mL. Type of assay: functional.
Assay [40] in a line: In vitro inhibitory concentration against chloroquine-enhancing Plasmodium falciparum FCM29 @ concentration of 00 ug/mL. Type of assay: functional.
Assay [41] deals with Plasmodium falciparum. As to the kind of experiment: In vitro inhibition against Plasmodium falciparum FCM29 at 0.68 ug/mL. Type of assay: functional, organism-based.
Assay [42] deals with Plasmodium falciparum. The assay is described as follows: In vitro inhibitory concentration against Plasmodium falciparum FCM29 at 0.68 ug/mL. Type of assay: functional.
The test system of assay [43] is Plasmodium falciparum. The assay is described as follows: (§11) In vitro inhibitory concentration against chloroquine-enhancing Plasmodium falciparum FCM29 at 1.36 ug/mL. Type of assay: functional.
The test system of assay [44] is Plasmodium falciparum. The description is as §11. Type of assay: functional, organism-based.
Assay [45] relates to Plasmodium falciparum. As to the kind of experiment: (§12) In vitro inhibitory concentration against chloroquine-enhancing Plasmodium falciparum FCM29 at 3 ug/mL. The format is functional, organism-based.
Assay [46] has as its system Plasmodium falciparum. The description is as §12. The format is functional.

In brackets after ≈: the same amount, converted by molar mass. Several values for one entry are separate records, joined by “and”; a condition that tells them apart may be missing. Equal entries are not always repeated.

As to `CCN(CC)CCCOc1cccc(-c2ccccc2)c1`, the 50% inhibitory concentration (IC50) is 152 nM in assay [1]; 77.7 nM in [2]; 3.1 µg/mL (≈ 10.9 µM) in assay [3]; 119 nM in assay [5]; 101 nM in [5] (Plasmodium falciparum); 70.9 nM in assay [6]. The IC50 in assay [7] stood at 3.1 nM. In addition, the IC90 in assay [4] is 556 nM; in assay [8], 49.5 µg/mL (≈ 175 µM); in assay [9], 255 nM and 745 nM; in assay [10] it was 205 nM; in assay [11] it was 73.2 nM; in assay [12] it was 736 nM.
As for `CCN(CC)CCCNc1ccccc1-c1ccccc1`, the IC50 in assay [13] came out at 138 nM; in assay [3], 3.1 µg/mL (≈ 11 µM); in assay [17], 72.2 nM; in assay [18], 11.5 nM. The IC90 in assay [14] came out at 820 nM; in assay [8], 94.6 µg/mL (≈ 335 µM); in [15] it was 400 nM; in assay [16], 373 nM.
Consider `CCN(CC)CCCNc1ccc(-c2ccccc2)cc1`, for which the figures for the IC50 in assay [19], in [3] and in [23] were 25.9 nM, 2.9 µg/mL (≈ 10.3 µM) and 54 nM, respectively. Besides, the IC90 in assay [8] was 18.5 µg/mL (≈ 65.5 µM); in assay [20], 114 nM; in [21], 198 nM; in assay [22] it was 98.2 nM and 368 nM.
On to `CCN(CC)CCCNc1ccccc1Br`, for which the IC50 in [19] came out at 40.3 nM; in assay [3], 3.7 µg/mL (≈ 13 µM); in [5] (Plasmodium falciparum) it was 58.2 nM; in [6], 28.8 nM; in assay [24], 6.1 nM. Also, the IC90 in [9] (Plasmodium falciparum) came to 290 nM; in [10], 134 nM; in [25] it was 153 nM; in [26], 195 nM.
In the case of `CCN(CC)CCCOc1ccc(-c2ccccc2)cc1`, the IC50 in assay [27] stood at 101 nM; in assay [28], 169 nM; in assay [3], 1.7 µg/mL (≈ 6 µM). Further, the IC90 is 24.4 µg/mL (≈ 86.1 µM) in [8], 655 nM in assay [29] and 311 nM in assay [30].
For the molecule `CCN(CC)CCCNc1cccc(Br)c1`, the IC50 turned out to be 38.5 nM in assay [31]; 110 nM in assay [32]; 7.2 nM in assay [33]; 7.6 µg/mL (≈ 26.6 µM) in assay [3]; 68.5 nM in [17]. Moreover, the IC90 in assay [14] came out at 809 nM; in assay [8], 80.3 µg/mL (≈ 282 µM); in assay [34] it was 443 nM; in assay [15], 392 nM; in assay [35], 210 nM.
For the molecule `CCN(CC)CCCNc1ccc(Br)cc1`, the IC50 in assay [1] was found to be 146 nM; in [36] it was 95.9 nM; in [37], 161 nM; in [3], 6.1 µg/mL (≈ 21.4 µM); in assay [6] it was 69.3 nM; in assay [7], 28.7 nM. Also, the concentration for half-maximal inhibition (IC50) in [40] amounted to 161 nM. The IC90 in assay [8] was 66.7 µg/mL (≈ 234 µM); in assay [10], 272 nM; in [11], 273 nM; in [38], 843 nM; in assay [39], 745 nM; in assay [12], 745 nM.
In the case of `CCN(CC)CCCNc1cccc(-c2ccccc2)c1`, the values for the IC50 in [41], in [3] and in [44] were 160 nM, 2.3 µg/mL (≈ 8.14 µM) and 109 nM, respectively. Further, the IC90 is 781 nM in assay [42], 20.8 µg/mL (≈ 73.6 µM) in assay [8] and 630 nM in [43].
For `CCN(CC)CCCOc1ccccc1-c1ccccc1`, the IC50 in assay [19] came to 42.9 nM; in assay [2], 7.6 nM; in assay [45] it was 3 nM; in assay [3], 3.3 µg/mL (≈ 11.6 µM); in assay [5] (Plasmodium falciparum), 53.9 nM. The IC90 turned out to be 191 nM in [4]; 157 nM in [46]; 22.3 µg/mL (≈ 78.7 µM) in [8]; 534 nM in [9] (Plasmodium falciparum); 301 nM in assay [26].

The IC50 is the midpoint of a concentration-inhibition curve. As a reminder, the IC90 is the concentration at which the effect reaches the 90% level.
